According to patent publication US20080214455A1, “Novel Chemical Compounds” (SMITHKLINE BEECHAM CORPORATION, priority 2005, published 2008):

Target: T1, hYAK3 (Homo sapiens, UniProt O43781)
T1 construct: GST (N); His6 (C); made in house; host or cells: baculovirus expression system in Sf9 cells
T1 sequence (O43781 142-526): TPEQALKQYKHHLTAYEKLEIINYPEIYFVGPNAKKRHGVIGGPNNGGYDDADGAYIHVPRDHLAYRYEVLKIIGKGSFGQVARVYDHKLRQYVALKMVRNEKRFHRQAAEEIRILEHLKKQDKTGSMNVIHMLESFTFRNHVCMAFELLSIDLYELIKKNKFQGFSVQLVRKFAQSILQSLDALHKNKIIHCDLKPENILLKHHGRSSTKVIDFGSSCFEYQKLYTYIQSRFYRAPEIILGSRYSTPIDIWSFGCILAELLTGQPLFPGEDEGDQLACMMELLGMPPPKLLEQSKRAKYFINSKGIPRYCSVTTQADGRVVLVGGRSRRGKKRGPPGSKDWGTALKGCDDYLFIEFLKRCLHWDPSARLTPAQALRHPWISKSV
Experiment: YAK3 Scintillation Proximity Assay using Ser164 of myelin basic protein as the phosphoacceptor (kinase assay of purified hYAK3)
Assay type: biochemical
Settings: purified GST-hYak3-His6; 1 μM ATP; 4 μM Ser164 peptide; 2 hours at room temperature
Method: Substrate phosphorylation assays were carried out as follows:
YAK3 Scintillation Proximity Assays Using Ser164 of Myelin Basic Protein as the Phosphoacceptor
The source of Ser164 substrate peptide The biotinylated Ser164, S164A peptide(LGGRDSRAGS*PMARRKK-ahx-Biotin-Amide), sequence derived from the C-terminus of bovine myelin basic protein (MBP) with Ser162 substituted as Ala 162, was purchased from California Peptide Research Inc. (Napa, Calif.), and its purity was determined by HPLC. Phosphorylation occurs at position 164 (marked S* above). The calculated molecular mass of the peptide is 2166 dalton. Solid sample was dissolved at 10 mM in DMSO, aliquoted, and stored at −20 C until use. […]
Kinase assay of purified hYAK3: Assays were performed in 96 well (Costar, Catalog No.3789) or 384 well plates (Costar, Catalog No.3705). […] Compounds, titrated in DMSO, were evaluated at concentrations ranging from 50 μM to 0.2 nM. […]
The data for compound dose responses were plotted as % Inhibition, calculated with the data reduction formula 100*(1-[(U1-C2)/(C1-C2)]), versus concentration of compound, where U is the unknown value, C1 is the average control value obtained for DMSO, and C2 is the average control value obtained for 0.05M EDTA. […] The results for each compound were recorded as pIC50 calculated as follows: pIC50=−Log 10(K).

IC50: 1.26 nM
SMILES: O=C1N=C(Nc2c(Cl)cccc2Cl)S/C1=C\c1ccc2ncc(N3CCOCC3)nc2c1 [Example 1, (5Z)-2-[(2,6-Dichlorophenyl)amino]-5-{[3-(4-morpholinyl)-6-quinoxalinyl]methylidene}-1,3-thiazol-4(5H)-one]
